Converted amounts (≈) assume the structure as drawn.
Assays:
[1] = Metabolic stability in male Han Wistar rat hepatocytes (CLint Rat Hep.); type: in vitro ADME; details: measured on the labelled compound itself, 1 μM, 10^6 viable cells/mL, 37 °C, n = 1
Protocol: Metabolic stability in male Han Wistar rat hepatocytes (CLint Rat Hep.) Hepatocyte metabolic stability was determined in accordance with the method described by Jacobson et al14. Cryopreserved hepatocytes at a concentration of 10 6 viable cells/mL were used. After thawing, hepatocytes were incubated for 10 min to warm to 37 °C, and compounds dissolved in MeCN were […]
incubation system was mixed and 20 μL aliquots were transferred at each time point to wells in a separate plate filled with 80 μL MeCN to stop the reaction. The quenching plate was then vortexed followed by centrifugation, and supernatants were analysed by LC-MS/MS (Waters Xevo-TQS). Peak areas were determined from extracted ion chromatograms, and the in vitro intrinsic clearance (in vitro CLint, in μL/min/10^6 cells) of parent compound was calculated from the slope in the regression analysis of the natural logarithm of parent concentration vs. time curve. Rat Hepatocytes (Cryosuspension, Male Wistar Hannover ) were harvested and s upplied by BioIVT (Product No. M00065, Lot No. DVO).
(§1) The modulation of pharmaceutically relevant properties on meta-C–H alkylation is shown below in Supplementary Fig. 68, with a selection of physicochemical and DMPK data including solubility , LogD, human plasma protein binding (Prot. Bind.) and intrinsic clearance (CLint) in human liver microsomes (HLM) or rat hepatocytes (Rat Hep.) .

[2] = Fraction unbound in human plasma (Prot. Bind.), equilibrium dialysis; type: in vitro ADME; details: 5 μM, dialysis at 37 °C for 18 hours
From the text: (§2) 5. Pharmaceutically relevant properties modulation
(§3) Product analogues 5e, 6a-6k obtained after late-stage meta-C–H alkylation of the pharmaceutically active compound Emapunil (4e) were subjected to a range of fundamental in vitro drug discovery assays. To prevent hydrolysis of ester groups present on these analogues during biological testing (in order to compare the clearance and metabolic stability between these drug derivatives), their corresponding free acids 5e’, 6a’-6k’ were synthesised (see page S54) and subjected to similar assays.
(§4) The experimental methods used for these physicochemical & drug metabolism and pharmacokinetics (DMPK) assays are described below 11. […]
Fraction unbound in human plasma (Prot. Bind.)
Equilibrium dialysis of compounds was used to assess the fraction unbound in human plasma. Stock solutions of compounds dissolved in DMSO were pooled into cassettes with up to 10 compounds in each cassette with a concentration of 1 mM. The pooled stock solutions were diluted in plasma to a compound concentration of 5 μM. Warfarin, propranolol and metoprolol were used as reference compounds in each run. The equilibrium dialysis device (RED, Thermo Fischer Scientific Inc., Rockford, USA) was used for dialysis against phosphate buffer (pH 7.4) at 37 °C for 18 hours. Calibration curves ranging from 0.001 to 7 μM were made using aliquots of the 7 μM spiked plasma pools that were transferred to a new plate followed by serial dilutions with blank plasma. Calibration curve samples and dialysis samples were precipitated with MeCN and after centrifugation, supernatants were removed and analysed using LC-MS/MS (Waters Xevo-TQS). Fraction unbound in the incubation was calculated as the concentration in the media buffer sample divided by the concentration in the plasma sample. The fraction unbound was reported as the median value.

[3] = Metabolic stability in human liver microsomes (CLint HLM); type: in vitro ADME; details: 1 mg/mL microsomal protein, 1 mM NADPH, 37 °C; for microsomal CLint at 1 μM: both sexes, human, liver microsomes, pH 7.4, measured on the labelled compound itself, n = 1, read-out: CLint HLM (intrinsic clearance in human liver microsomes); for CLint HLM (intrinsic clearance in human liver microsomes): measured on the labelled compound itself, 1 μM, n = 1
Protocol: Metabolic stability in human liver microsomes (CLint HLM)
Human liver microsomes were defrosted on ice and diluted to 1 mg/mL of microsomal protein in phosphate buffer (0.1 M, pH 7.4). Compounds at 1 μM were incubated with the liver microsome suspensions and 1 mM NADPH at 37 °C in a 96-well plate. At 0.5, 5, 10, 15, 20 and 30 min, aliquots of 30 μL were transferred to a 96-well plate containing 120 μL MeCN. This plate was centrifuged for 20 min and supernatant was removed and diluted with H2O (1:1) before analysis by LC-MS/MS (Waters Xevo-TQS). Peak areas were determined from extracted ion chromatograms, and the in vitro intrinsic clearance (in vitro CLint, in μL/min/mg microsomal protein) of parent compound was calculated from the slope in the regression analysis of the natural logarithm of parent concentration vs. time curve.
Human Liver Microsomes (InVitroCYPTM 150-Donor, Mixed Gender) were harvested and supplied by BioIVT (Product No. X008070, Lot No. QQY). […]
as §1

[4] = Octanol/water partitioning (LogD), shake-flask method; type: physicochemical; details: n = 1; for LogD (octanol): 1-octanol / phosphate buffer pH 7.4, 20 °C; for logD: 1-octanol/phosphate buffer, pH 7.4, 1-octanol / phosphate buffer pH 7.4, 20 °C
From the text: as §2, §3, §4
Octanol/water partitioning (LogD)
Partitioning of compounds between 1 -octanol and phosphate buffer (0.1 M, pH 7.4) at 20 °C were determined using a modified version of the shake -flask method described by Leo et al13. Compounds were dissolved in a 96 -well plate, in 400 μL octanol, and 400 μL of buffer was added to each well. The plate was vigorously stirred for 5 min and then put on an Edmund Bühler shaker (Edmund Bühler GmbH, Hechingen, Germany) at 20 °C for 18 hours. Aliquots of 5 μL octanol were transferred and diluted with 495 μL MeCN/H2O (1:1) and, to avoid contamination of the buffer, the rest of the octanol was removed before 150 μL of buffer samples were transferred. Octanol and buffer samples were diluted with MeCN/H2O (1:1) in four steps of 10 times to yield octanol samples diluted 10 2 to 106 times and buffer samples diluted 1 to 104 times. LC-MS/MS (Waters Xevo-TQS) was used for analysis, and distribution coefficient at pH 7.4 (LogD7.4) was calculated from the integrated peak areas of the samples in the linear MS response range. LogD7.4 results were reported as median values. […]

[5] = Thermodynamic solubility, shake-flask approach, phosphate buffer pH 7.4; type: physicochemical; details: pH 7.4, phosphate buffer 0.1 M, 20 °C, n = 1
From the text: as §2, §3
The experimental methods used for these physicochemical & drug metabolism and pharmacokinetics (DMPK) assays are described below 11.
This method measures the thermodynamic solubility of compounds based on a shake-flask approach12.
The nature of the solid state was unknown in these experiments and may be subject to variability. The compounds were dissolved in DMSO (30 μL, 10 mM) in glass vials, and were dried using a Genevac vacuum evaporator (Genevac Ltd, Ipswich, UK). When the samples were dry, 300 μL of phosphate buffer (0.1 M, pH 7.4) was added to the glass vials. The vials were put on an Edmund Bühler shaker (Edmund Bühler GmbH, Hechingen, Germany) at 20 °C for 18 hours. Samples were filtered through a Whatman GF/B 96-well filter and 20 μL of filtrated samples were transferred to separate wells in a plate containing 180 μL MeCN/H2O (1:1). Standards were prepared by diluting the 10 mM compound solutions with MeCN/H2O (1:1) to 200 μM. Three further dilution steps of 10 times were applied to both the samples and standards and they were all analy sed by LC-MS/MS (Waters Xevo-TQS). Solubility was determined using the integrated peak areas of the samples in the linear MS response range. […]

[6] = aqueous buffer, thermodynamic from solid

Row | Prot. Bind. (% free), human plasma protein binding ([2]; n = 1) [% free] | microsomal CLint at 1 μM [3] [µL/min/mg] | CLint HLM (intrinsic clearance in human liver microsomes) [3] [µL/min/mg] | LogD (octanol) [4] | logD [4] | solubility at 18 h [5, 6] [µM] | solubility at 18 h [5] [µM] | Prot. Bind. (% free), human plasma protein binding ([2]; n = 1, listed as 6i’) [% free] | Prot. Bind. (% free), human plasma protein binding ([2]; n = 1, listed as 6j’) [% free] | Compound | CLint Rat Hep. (intrinsic clearance in rat hepatocytes) [1] [μL/min/10^6] | CLint Rat Hep. (intrinsic clearance in rat hepatocytes) ([1]; listed as 6h’) [μL/min/10^6] | CLint Rat Hep. (intrinsic clearance in rat hepatocytes) ([1]; listed as 6i’) [μL/min/10^6] | CLint Rat Hep. (intrinsic clearance in rat hepatocytes) ([1]; listed as 6j’) [μL/min/10^6] | CLint Rat Hep. (intrinsic clearance in rat hepatocytes) ([1]; listed as 6k’) [μL/min/10^6]
1 | 14.0 | > 300 | 4.6 | -1.0 | 3.1 | 58 (≈ 30.7 µg/mL) | > 1000 |  |  | CCOC(=O)C1(c2cccc(-c3ncc4c(n3)n(CC(=O)N(CC)Cc3ccccc3)c(=O)n4C)c2)COC1 [6h] | > 300 | 19.3 |  |  | 
2 | 7.8 | > 300 | < 3.0 | -0.7 | 2.9 | 104 (≈ 55.1 µg/mL) | > 1000 | 5.9 |  | CCN(Cc1ccccc1)C(=O)Cn1c(=O)n(C)c2cnc(-c3cccc(C4(C(=O)OC)CCOC4)c3)nc21 (stereo not drawn) [6i] | > 300 |  | 12.9 |  | 
3 | < 0.1 | > 300 | 7.6 | > 3.6 |  | < 2.4 | 910 (≈ 629 µg/mL) |  | 0.8 | CCN(Cc1ccccc1)C(=O)Cn1c(=O)n(C)c2cnc(-c3cccc(C4(C(=O)OCc5ccccc5)CN(C(=O)OC(C)(C)C)C4)c3)nc21 [6j] | > 300 |  |  | 17.2 | 
4 | < 0.3 | > 300 | 24.1 | > 3.2 |  | 6 (≈ 4.31 µg/mL) | 806 (≈ 579 µg/mL) |  |  | CCN(Cc1ccccc1)C(=O)Cn1c(=O)n(C)c2cnc(-c3cccc(C4(C(=O)OCc5ccccc5)CCN(C(=O)OC(C)(C)C)CC4)c3)nc21 [6k] | 157 |  |  |  | 18.0
